{"source": "patent US8710104B2", "about": "“Catecholic butanes and use thereof for cancer therapy” (Triact Therapeutics, Inc., priority 2008, dated 2014)", "key": {"[1]": {"test_system": "ovarian cancer", "settings": "ovarian cancer patients; topotecan about 1.5 mg/m^2 i.v. days 1-5 of a 21-day course", "description": "This example describes a randomized, blinded, placebo-controlled, multicenter, Phase II study designed to provide a preliminary assessment of the safety and efficacy of combining NDGA with topotecan in patients with ovarian cancer. Approximately about 100—about 800 patients are enrolled, with about 50—about 400 patients being assigned to a treatment group and about 50—about 400 patients assigned to a placebo group. The trial will consist of the administration of intravenous repeating doses of NDGA as described above in Example 11 combined with topotecan at about 1.5 mg/m^2 by intravenous infusion on days 1-5 of a 21-day course, with courses repeating throughout the study. Control patients are administered topotecan with placebo. […] Additional outcome measures are as follows:\nPrimary outcome measure: progression-free survival."}, "[2]": {"test_system": "H1299 NSCLC cells", "assay": "proliferation of H1299 NSCLC cells", "assay_type": "cell-based"}, "[3]": {"target": "T1, kinase domain of the IGF-1R (Homo sapiens, UniProt P08069)", "T1 construct": "recombinant proteins representing the kinase domain of the IGF-1R or EGFR (Cell Signaling Technology, Danvers, Mass.); purchased Cell Signaling Technology, Danvers, Mass", "T1 sequence (P08069 999-1274 limits assumed)": "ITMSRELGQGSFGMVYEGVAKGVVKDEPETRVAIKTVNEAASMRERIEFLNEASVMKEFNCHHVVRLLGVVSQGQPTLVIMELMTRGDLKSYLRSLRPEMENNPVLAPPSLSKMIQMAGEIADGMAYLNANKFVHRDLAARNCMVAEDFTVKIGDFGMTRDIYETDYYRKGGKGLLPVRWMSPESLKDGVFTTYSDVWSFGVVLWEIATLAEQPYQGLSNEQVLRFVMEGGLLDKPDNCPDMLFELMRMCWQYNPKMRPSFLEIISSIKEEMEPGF", "assay": "RTK activity ELISA, IGF-1R kinase domain", "assay_type": "biochemical", "settings": "ATP 10 μM, IRS-1 substrate peptide 0.2 μM, 45 minute reaction", "method": "(§1) Inhibition of lipoxygenase activity was determined by use of a lipoxygenase inhibitor screening assay kit (Cayman Chemicals, Ann Arbor, Mich.). […] LOX activity was determined by the amount of hydroperoxides produced, as quantified by colorimetric readout. Inhibition of RTK activity was determined by ELISA as follows. […] The reaction was stopped with 50 mM EDTA, and biotin-conjugated substrate was captured on a 96-well streptavidin-coated plate. Tyrosine phosphorylation of captured substrate was determined by incubation with anti-phosphotyrosine antibody conjugated to HRP (Santa Cruz Biotechnology, Santa Cruz, Calif.) and colorimetric readout on a 96 well plate reader."}, "[4]": {"target": "T2, kinase domain of the EGFR (Homo sapiens, UniProt P00533)", "T2 construct": "recombinant proteins representing the kinase domain of the IGF-1R or EGFR (Cell Signaling Technology, Danvers, Mass.); purchased Cell Signaling Technology, Danvers, Mass", "T2 sequence (P00533 712-979 limits assumed)": "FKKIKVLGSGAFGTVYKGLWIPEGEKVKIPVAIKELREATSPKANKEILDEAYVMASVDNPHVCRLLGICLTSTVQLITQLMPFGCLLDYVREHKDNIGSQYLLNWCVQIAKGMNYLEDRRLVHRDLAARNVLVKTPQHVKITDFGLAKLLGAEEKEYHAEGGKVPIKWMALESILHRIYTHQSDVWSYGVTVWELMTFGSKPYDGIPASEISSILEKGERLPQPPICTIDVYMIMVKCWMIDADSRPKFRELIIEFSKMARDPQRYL", "assay": "RTK activity ELISA, EGFR kinase domain", "assay_type": "biochemical", "settings": "ATP 10 μM, PTP1B substrate peptide 0.2 μM, 45 minute reaction", "method": "as §1"}, "[5]": {"test_system": "H1975 NSCLC cells expressing EGFR T790M mutation", "assay": "proliferation of Iressa-resistant H1975 NSCLC cells", "assay_type": "cell-based", "settings": "10 μM TT-100, 3 days"}, "[6]": {"test_system": "H1975 NSCLC cells", "assay": "soft agar colony formation, H1975", "assay_type": "cell-based", "settings": "5 μM or 30 μM TT-100, 8 days; reduced more at higher dose", "method": "(§2) Colony formation was assessed and compared with the control cells grown in the absence of TT-100."}, "[7]": {"test_system": "H1299 NSCLC cells", "assay": "soft agar colony formation, H1299", "assay_type": "cell-based", "settings": "5 μM or 30 μM TT-100, 8 days; reduced more at higher dose", "method": "as §2"}, "[8]": {"test_system": "subcutaneous HER2 breast tumors (MCNeuA cells)", "assay": "MCNeuA syngeneic breast cancer model, tumor growth", "assay_type": "in vivo, MMTVneu transgenic mice", "settings": "thrice weekly", "method": "(§3) MCNeuA cells were implanted in MMTVneu transgenic mice to induce tumor growth. […] Tumor growth was monitored and tumor size was measured at various time points. […] IGF-1R and HER2 phosphorylation were measured by ELISA."}, "[9]": {"target": "T3, IGF-1R (Mus musculus, UniProt Q60751)", "T3 construct": "from tissue; host or cells: excised subcutaneous MCNeuA breast tumours from MMTVneu transgenic mice", "T3 sequence (Q60751 31-1373)": "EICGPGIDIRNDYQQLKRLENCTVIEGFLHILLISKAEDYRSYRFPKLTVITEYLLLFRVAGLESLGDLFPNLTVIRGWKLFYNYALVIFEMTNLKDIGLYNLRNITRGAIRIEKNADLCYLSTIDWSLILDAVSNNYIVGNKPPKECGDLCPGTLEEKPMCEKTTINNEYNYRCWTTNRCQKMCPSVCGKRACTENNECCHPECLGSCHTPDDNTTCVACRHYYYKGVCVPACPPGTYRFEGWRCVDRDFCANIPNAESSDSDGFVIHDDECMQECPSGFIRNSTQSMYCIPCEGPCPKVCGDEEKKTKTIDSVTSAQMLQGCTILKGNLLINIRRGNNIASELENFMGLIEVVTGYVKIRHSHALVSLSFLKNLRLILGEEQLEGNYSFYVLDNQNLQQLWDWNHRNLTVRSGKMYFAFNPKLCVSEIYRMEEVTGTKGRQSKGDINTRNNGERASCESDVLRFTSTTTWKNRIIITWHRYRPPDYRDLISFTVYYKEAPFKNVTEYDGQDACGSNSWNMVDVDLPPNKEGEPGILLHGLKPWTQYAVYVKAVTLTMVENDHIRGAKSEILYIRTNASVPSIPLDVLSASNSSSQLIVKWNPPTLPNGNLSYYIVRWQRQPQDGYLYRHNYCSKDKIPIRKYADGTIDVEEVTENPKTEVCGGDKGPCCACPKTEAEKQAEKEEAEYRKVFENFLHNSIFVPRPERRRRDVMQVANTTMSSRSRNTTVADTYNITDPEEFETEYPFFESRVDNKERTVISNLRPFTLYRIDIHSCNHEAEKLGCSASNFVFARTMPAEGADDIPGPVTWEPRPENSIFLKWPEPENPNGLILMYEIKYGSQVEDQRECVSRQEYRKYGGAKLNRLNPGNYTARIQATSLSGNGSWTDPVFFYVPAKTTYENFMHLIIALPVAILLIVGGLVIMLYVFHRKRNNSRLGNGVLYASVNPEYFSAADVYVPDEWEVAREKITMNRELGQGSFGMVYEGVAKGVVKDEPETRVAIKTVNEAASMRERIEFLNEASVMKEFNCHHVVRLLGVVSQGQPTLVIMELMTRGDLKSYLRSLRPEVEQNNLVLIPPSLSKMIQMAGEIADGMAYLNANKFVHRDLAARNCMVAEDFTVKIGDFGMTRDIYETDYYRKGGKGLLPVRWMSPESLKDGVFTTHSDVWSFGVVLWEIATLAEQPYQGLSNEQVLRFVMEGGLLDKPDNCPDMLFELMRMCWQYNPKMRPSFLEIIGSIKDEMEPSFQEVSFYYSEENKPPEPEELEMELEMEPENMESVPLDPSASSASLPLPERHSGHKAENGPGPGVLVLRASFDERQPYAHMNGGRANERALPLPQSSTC", "assay": "IGF-1R phosphorylation in excised breast tumors by ELISA", "assay_type": "in vivo, MMTVneu transgenic mice", "settings": "tumor excised on day 28, 24 hrs after the final treatment", "method": "as §3"}, "[10]": {"test_system": "HER2", "assay": "HER2 phosphorylation in excised breast tumors by ELISA", "assay_type": "in vivo, MMTVneu transgenic mice", "settings": "tumor excised on day 28, 24 hrs after the final treatment", "method": "as §3"}}, "data": [{"smiles": "CC[C@@]1(O)C(=O)OCc2c1cc1n(c2=O)Cc2cc3c(CN(C)C)c(O)ccc3nc2-1", "note": "[topotecan]", "values": [{"measurement": "progression free survival (goal of the study)", "setting": "[1]", "value": "3-6 months"}]}, {"smiles": "COc1cc2ncnc(Nc3ccc(F)c(Cl)c3)c2cc1OCCCN1CCOCC1", "note": "[Iressa, Gefitinib, reference compound]", "values": [{"measurement": "proliferation (percent growth of the control cells), Iressa alone", "setting": "[2]; 1 μM Iressa, 3 days", "value": "resistant"}]}, {"smiles": "CC(Cc1ccc(O)c(O)c1)C(C)Cc1ccc(O)c(O)c1", "note": "(stereo not drawn) [TT-100, nordihydroguaiaretic acid]", "values": [{"measurement": "inhibition of tyrosine kinase activity of purified IGF-1R", "setting": "[3]", "value": "directly inhibits"}, {"measurement": "inhibition of tyrosine kinase activity of purified EGFR", "setting": "[4]", "value": "directly inhibits"}, {"measurement": "reduction of proliferation (percent growth of the control cells)", "setting": "[5]", "value": "approximately 50%"}, {"measurement": "proliferation (percent growth of the control cells), TT-100 alone", "setting": "[2]; 10 μM or 20 μM TT-100, 3 days, especially at 20 μM", "value": "inhibited the proliferation"}, {"measurement": "colony formation in soft agar", "setting": "[6]", "value": "inhibited colony formation"}, {"measurement": "colony formation in soft agar", "setting": "[7]", "value": "inhibited colony formation"}, {"measurement": "tumor growth (tumor size)", "setting": "[8]; 37.5 mg/kg i.p.", "value": "inhibited the growth"}, {"measurement": "tumor growth (tumor size)", "setting": "[8]; 100 mg/kg by gavage (oral)", "value": "inhibited the growth"}, {"measurement": "IGF-1R receptor phosphorylation compared to vehicle-treated control", "setting": "[9]", "value": "significantly inhibited"}, {"measurement": "HER2 receptor phosphorylation compared to vehicle-treated control", "setting": "[10]", "value": "significantly inhibited"}]}]}
